Data published in publication PMC3913620, “Preclinical Evaluation of the Novel, Orally Bioavailable Selective Inhibitor of Nuclear Export (SINE) KPT-335 in Spontaneous Canine Cancer: Results of a Phase I Study” (PLoS ONE, 2014).
Values joined by “and” are separate entries in the source; they are usually repeats but may differ in a detail not shown here. Equal values may be shown once.

Key:
CLBL1 DLBCL cells = test: MTS cell viability assay, CLBL1; format: cell-based, canine; conditions: Canis lupus familiaris, CLBL-1, 72 hours, read-out: IC50 (± S.D.), CLBL1
Protocol: Cryopreserved tumor cells obtained from sterile lymph node biopsy samples from dogs with diffuse large B cell lymphoma (DLBCL) were cultured with 100 ng/mL of megaCD40L (Enzo Life Science, Plymouth Meeting, PA) as previously described, [27]. The human T-cell leukemia cell line, Jurkat, was from the American Type Culture Collection (ATCC, Manassas, VA) and cultured in RPMI1640 medium (Gibco/BRL, Grand Island, NY) containing 10% fetal bovine serum (FBS; Atlas Biologicals, Fort Collins, CO), 2-mercaptoethanol (Gibco/BRL), HEPES, L-glutamine, sodium pyruvate (Mediatech Inc., Manassas, VA), non-essential amino acids (Sigma Aldrich, St. Louis, MO), and Primocin (Invivogen, San Diego, CA). […]
Cell viability for lymphoid lines was determined by the MTS (3-(4, 5-dimethylthiazol-2-yl)-5-(3-carboxymethoxyphenyl)-2-(4-sulfophenyl)-2H-tetrazolium) assay using CellTiter 96® AQueous One Solution Cell Proliferation Assay Kit (Promega, Madison, WI). […] After 72 hours, 20 µL of MTS solution was added to each well and cells were incubated for another 4 hours before measuring absorbance at 490 nm using a Wallac Victor 1420 Multilabel Counter (Perkin Elmer, Waltham, MA). The IC50 of SINE was calculated using Prism 6 software (GraphPad Software, Inc., La Jolla, CA).

[1] = Owner-assessed quality of life questionnaire; format: in vivo, dogs
Source text: A tool to assess quality of life in dogs with cancer during treatment has been previously published. This was used to assess owner perceived changes in dogs undergoing KPT-335 treatment during both the dose escalation and dose expansion studies. An overall quality of life (QOL) score was created based on answers to the questions on the quality of life questionnaire. The scores from each question were summed resulting in an overall quality of life score which could range from 23 to 115. Trends in Quality of Life (QOL) during the study were examined using linear mixed models containing fixed effects of time and an autoregressive correlation structure for the random errors. Wald tests were used to test for a significant change in QOL with degrees of freedom calculated using the Kenward-Roger method. Measurements obtained after 90 days were not included in the analysis for the dose escalation study and measurements after 70 days were not included in the analysis of the dose expansion data due to few data points after those time points.

[2] = Tolerability in normal laboratory dogs (data not shown); conditions: dog, in vivo
dogs with NHL = test: Dose expansion study, tumor response; format: in vivo; conditions: 1.5 mg/kg Monday/Wednesday/Friday
Protocol: Tumor assessments were completed prior to study entry, and days 7, 14, 21, and 28. For dogs that continued beyond 4 weeks, response assessments were performed every 2 weeks thereafter, or at the time of suspected tumor progression. Responses were assessed by the investigator according to pre-defined protocol criteria. The response in dogs with assessable disease was performed by clinical examination, ultrasonography, or thoracic radiography. Many lesions were not amenable for quantitative radiographic imaging, but were followed either by serial clinical examination (superficial lesions; palpable lymph nodes) or by ultrasonography (abdominal lymph nodes). Thoracic lesions were assessed by thoracic radiography.
The response in dogs with measurable disease was judged by the investigator on the basis of Response Evaluation Criteria for Peripheral Nodal Lymphoma in dogs (v1.0). A complete response (CR) was defined as disappearance of all disease on two measurements separated by a minimum period of 3 weeks. A partial response (PR) was defined as greater than 30% reduction in the sum of the longest diameter of the target lesions documented by two assessments separated by at least 3 weeks. An increase of >20% in the size of all measurable tumor areas as measured by the sum of longest diameters of the target lesions taken as reference the smallest sum since initiation of therapy, or the appearance of any new lesion(s) would qualify as progressive disease (PD). […] Dogs who had no evidence of tumor progression and who had not experienced any unacceptable toxicity were eligible for extended treatment cycles. Dose escalation from twice per week administration to three times per week administration in an individual dog was permitted if the dog was tolerating therapy.

[3] = system: primary canine DLBCL cells; test: MTS cell viability assay, primary canine DLBCL samples; format: cell-based; conditions: Canis lupus familiaris, primary sample #1, 72 hours, read-out: IC50, DLBCL#1
Protocol: Cryopreserved tumor cells obtained from sterile lymph node biopsy samples from dogs with diffuse large B cell lymphoma (DLBCL) were cultured with 100 ng/mL of megaCD40L (Enzo Life Science, Plymouth Meeting, PA) as previously described, [27]. The human T-cell leukemia cell line, Jurkat, was from the American Type Culture Collection (ATCC, Manassas, VA) and cultured in RPMI1640 medium (Gibco/BRL, Grand Island, NY) containing 10% fetal bovine serum (FBS; Atlas Biologicals, Fort Collins, CO), 2-mercaptoethanol (Gibco/BRL), HEPES, L-glutamine, sodium pyruvate (Mediatech Inc., Manassas, VA), non-essential amino acids (Sigma Aldrich, St. Louis, MO), and Primocin (Invivogen, San Diego, CA). The canine DLBCL cell line CLBL1 obtained from Dr. Barbara Rütgen (University of Vienna, Austria), [29] and human DLBCL cell lines OCI-Ly3 [30], [31] and OCI-Ly10 [32] obtained from Dr. Anne Novak (Mayo Clinic Cancer Center, Rochester, MN) were cultured in complete Iscove’s Modified Dulbecco’s medium (IMDM) containing 20% FBS, L-glutamine, and Primocin. All cells were maintained at 37°C in a humidified 5% CO2 atmosphere. The following additional canine tumor cell lines were used to evaluate response to SINE compounds: C2, mast cell tumor line provided by Dr. George Caughey, UCSF, San Francisco, CA [33]; OSA16, osteosarcoma cell line, provided by Dr. Jaime Modiano, UM, Minneapolis, MN [34]; and 323610-3, malignant melanoma cell line, provided by Dr. Michael Kent, UCD, Davis, CA [35]. All cell lines were cultured in complete RPMI media containing 10% FBS, antibiotic/antimycotic, HEPES, sodium pyruvate, nonessential amino acids and Glutamax (media supplements from Gibco).
Cell viability for lymphoid lines was determined by the MTS (3-(4, 5-dimethylthiazol-2-yl)-5-(3-carboxymethoxyphenyl)-2-(4-sulfophenyl)-2H-tetrazolium) assay using CellTiter 96® AQueous One Solution Cell Proliferation Assay Kit (Promega, Madison, WI). Briefly, for lymphoid cell lines, 5×10^4 cells (or 1×10^5 primary DLBCL cells) were cultured in 100 µL of complete medium in 96-well plates in the presence of SINE compounds. After 72 hours, 20 µL of MTS solution was added to each well and cells were incubated for another 4 hours before measuring absorbance at 490 nm using a Wallac Victor 1420 Multilabel Counter (Perkin Elmer, Waltham, MA). The IC50 of SINE was calculated using Prism 6 software (GraphPad Software, Inc., La Jolla, CA).

O=C(/C=C\n1cnc(-c2cc(C(F)(F)F)cc(C(F)(F)F)c2)n1)NNc1ccccn1 [KPT-335]
IC50 (CLBL1 DLBCL cells): 8.5 ± 4.1 nM
overall quality of life ([1]; dose escalation study, p = 0.64): did not change significantly
overall quality of life ([1]; dose expansion study, p = 0.47): did not change significantly
MTD [2]: 2 mg/kg
CB rate (dogs with NHL): 67%
TTP range, responders (dogs with NHL): 35 to 354 days
clinical benefit (CB), dogs (dogs with NHL): 4/6
dogs with SD for longer than 28 days (dogs with NHL): 4
median TTP, responders (dogs with NHL): 83 days
duration of PR, individual dogs (dogs with NHL; 1.5 mg/kg): 35 days and 354 days
TTP range, all dogs (dogs with NHL; 6 dogs with NHL): 13 to 354 days
median TTP, all dogs (dogs with NHL; 6 dogs with NHL): 55 days
IC50 [3]: 2 nM
